One data set concerns the target brain MAO-A (Mus musculus, UniProt Q64133). Nature of the data set: in vivo. As to the method: Male CD1 mice (8 weeks of age, 25-30 g) procured from Charles River were housed in the same conditions as in Ex vivo assay of MAO-A inhibition section.
Ex-vivo MAO-A activity was measured essentially as previously described . […] Brain samples were weighed and then thawed and homogenised in 20 volumes of homogenisation buffer after which MAO-A activity was measured. […] Enzyme activity was corrected by subtracting an assay buffer blank and initially expressed in units of nmoles substrate/min. The protein concentration of the homogenates was measured and used to express final enzyme activity in units of nmoles/min/mg protein. All results are expressed as a mean of duplicate determinations. Brains from animals treated acutely were assayed on a different day to those treated for 5 days (chronically).
MAO-A activity was determined using serotonin creatinine sulphate [2-^14C] as outlined above. Raw enzyme activity values (in nmoles substrate/min) were corrected by subtracting an assay buffer blank and were normalized to the total protein concentration (in nmoles/min/mg protein). All results are means of duplicate determinations. Different drug treatments were compared by Oneway-ANOVA with Dunnett analysis.

The next data set concerns SAMP8 mice. In words: Open Field (OF). As to conditions: 0.32 or 0.96 mg/kg/day. The data set is classed as in vivo, mouse. On the procedure: Both male and female mice from the senescence accelerated strain SAMP8 and its control SAMR1 of different ages (see Table S3 for details) were used in these studies. Mice were breed in the animal facilities of the Pharmacy Faculty (University of Barcelona), maintained in a at 22 ± 2 °C controlled temperature in a 12 hr light / dark cycle (lights on at 8:00 am; 300 lux/0 lux) with ad libitum access to food (2018 TEKLAD, Harlan) and water. Male mice were housed individually (males) or in groups of 4-5 animals (females) in plastic colony boxes with a sawdust bedding material. […] SAMR1 mice treated with vehicle were included as a control. […] Drug concentration was calculated weekly in function of body weight and corrected in function of drinking water consumption. Cognitive function was evaluated by NORT, social behavior was evaluated by RI and anxiety and motor function were evaluated by EPM and OF. […]
A 50 × 50-cm white plastic arena with 25-cm-high walls was used to analyze spontaneous exploratory behavior. […] The movements of each animal were video recorded during 5 min. Locomotor activity was analyzed by video-tracking over the captured images using SMART® (v 2.5.21 (rat) or v3.0 (mice), PanLab, SLU, Spain).
Novel Object Recognition Test (NORT): Time exploring the novel (NO) and the familiar object (FO) was measured and a discrimination Index (DI) was defined as (NO-FO)/(NO+FO). […]

The subject of data set [1] is ER (non-selective) (h) (agonist radioligand). In words: CEREP Diversity Panel. The data set is classed as binding, human. Further details: dose or concentration left out as unconfirmed. As to the method:
(§1) […]. MAO-A inhibition at 10 μM was 37%, in line with internal data.

Data set [2] relates to AR (h) (agonist radioligand). In words: CEREP Diversity Panel. It is filed as binding, human. More on the design: dose or concentration left out as unconfirmed. As to the method:
as §1

In another data set the target is T1, Human recombinant MAO-A (Homo sapiens, UniProt P21397).
T1 construct: purchased Sigma Aldrich M7316
T1 sequence (P21397 whole entry): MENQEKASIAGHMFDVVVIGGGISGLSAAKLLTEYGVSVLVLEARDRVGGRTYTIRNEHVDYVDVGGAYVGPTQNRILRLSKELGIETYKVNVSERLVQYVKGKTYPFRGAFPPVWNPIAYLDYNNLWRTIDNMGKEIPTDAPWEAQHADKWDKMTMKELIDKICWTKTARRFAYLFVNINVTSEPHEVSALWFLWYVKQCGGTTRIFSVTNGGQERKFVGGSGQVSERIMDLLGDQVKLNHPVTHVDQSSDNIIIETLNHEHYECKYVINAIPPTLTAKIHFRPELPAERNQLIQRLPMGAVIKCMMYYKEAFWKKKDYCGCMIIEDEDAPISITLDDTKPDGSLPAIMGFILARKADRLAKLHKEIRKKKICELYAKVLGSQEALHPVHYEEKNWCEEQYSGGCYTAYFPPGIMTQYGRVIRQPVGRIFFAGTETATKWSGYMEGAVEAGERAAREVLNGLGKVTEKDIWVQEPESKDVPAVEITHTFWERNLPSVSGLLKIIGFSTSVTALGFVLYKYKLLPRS
Nature of the data set: MAO-A kynuramine fluorescent assay. As to conditions: S1 Table A. It is filed as biochemical. On the procedure: Human recombinant monoamine oxidase proteins MAO-A and MAO-B (Sigma Aldrich, M7316 and M7441) were used to monitor the MAO enzymatic activities in a fluorescent assay using kynuramine as a substrate. […] Enzymatic reaction was initiated by the addition of specific KM Kynuramine and incubated 1 hr at 37 °C. The oxidative deamination of the substrate was stopped by adding NaOH 2N (v/v). The conversion of kynuramine to 4-hydroxyquinoline by MAOs was monitored by fluorescence (λex = 320 nm, λem = 360 nm) using a microplate reader.

A further data set concerns rats. In words: Functional Observation Battery. It is filed as in vivo. As to conditions: single dose of up to 100 mg/kg.
The next data set can be described thus: Mouse pharmacokinetics. It is filed as in vivo, BALB/c mice. As to conditions: for AUC(0-inf): read-out: Plasma AUCinf; for AUC(0-t): read-out: Plasma AUClast. On the procedure: Temperature and humidity were maintained at 22 ± 3 °C and 40-70 %, respectively and illumination was controlled to give a sequence of 12 hr light / dark cycle. The temperature and humidity were recorded by auto-controlled data logger system. All the animals were acclimatized to the experimental conditions for at least three days prior to dosing. All the animals were provided laboratory rodent diet (Vetcare India Pvt. Ltd, Bengaluru) except for overnight before treatment and 2 hr post dose. Reverse osmosis water treated with ultraviolet light was provided ad libitum. Blood samples were collected at 0, 0.05, 0.16, 0.5, 1, 2, 4, 8 & 24 hr for IV and for PO at 0, 0.25, 0.5, 1, 2, 4, 6, 8 and 24 hr post dosing. Each mouse was assigned to one of 3 subgroups and sampled at 3 timepoints. Animals were euthanized by using excess CO2 asphyxiation. The study was conducted at Sai Life Sciences Limited, Pune, India, in accordance with the guidelines of the Institutional Animal Ethics Committee (IAEC) and in accordance with the requirement of Committee for the Purpose of Control and Supervision of Experiments on Animals (CPCSEA), India. Prior approval was obtained before initiation of the study (IAEC Protocol No. IAEC/PRT/012-10; IAEC-CPCSEA).
Plasma was harvested from the blood samples harvested in K2EDTA containing tubes by centrifugation at 4000 rpm for 10 min at 4 ± 2 °C and stored below -70 °C until bioanalysis. Brain tissue was homogenized with phosphate buffer saline (pH 7.4). Total homogenate volume was thrice the tissue weight. All samples were processed for analysis by precipitation using Imipramine as internal standard and analyzed with partially validated LC-MS/MS method. Pharmacokinetic parameters were calculated using the non-compartmental analysis tool of WinNonlin® Enterprise software (Pharsight Corp., USA; version 5.2).
Compound levels from 3 samples per timepoint (for a given dose and route of administration), were used to calculated pharmacokinetic parameters using the non-compartmental analysis tool of WinNonlin® Enterprise software (Pharsight Corp., USA; version 5.2).

The mark [3] stands for this setting: male, mouse, plasma, BALB/c mice, intravenous 2 mg/kg.
Where [4] appears, read: male, mouse, plasma, BALB/c mice, oral 10 mg/kg.

The values below come from publication PMC7259601 (PLoS ONE, 2020).

Where two headings read alike, the source gives them in different places.

brain MAO-A, sequence (Q64133 whole entry): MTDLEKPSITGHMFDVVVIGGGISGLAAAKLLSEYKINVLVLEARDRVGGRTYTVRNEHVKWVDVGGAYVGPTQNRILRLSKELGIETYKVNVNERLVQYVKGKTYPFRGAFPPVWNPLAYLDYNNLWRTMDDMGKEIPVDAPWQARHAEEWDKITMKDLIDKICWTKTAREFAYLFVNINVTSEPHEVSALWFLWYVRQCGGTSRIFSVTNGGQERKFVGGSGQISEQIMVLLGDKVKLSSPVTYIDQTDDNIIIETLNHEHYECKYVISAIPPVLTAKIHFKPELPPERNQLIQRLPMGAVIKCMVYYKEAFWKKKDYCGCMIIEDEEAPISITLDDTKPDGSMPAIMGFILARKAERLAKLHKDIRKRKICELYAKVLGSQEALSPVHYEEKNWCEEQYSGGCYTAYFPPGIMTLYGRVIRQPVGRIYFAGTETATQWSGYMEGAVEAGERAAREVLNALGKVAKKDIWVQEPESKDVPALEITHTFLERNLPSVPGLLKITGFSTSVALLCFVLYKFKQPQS

For the molecule `Nc1nnc(CN[C@@H]2C[C@H]2c2ccc(OCc3ccccc3)cc2)o1` [ORY-2001, vafidemstat], on brain MAO-A (mice, acute 1 to 100 mg/kg p.o. gavage), the “ex vivo brain MAO-A inhibition, acute setting” value is reported as “only the 100 mg/kg dose led to a significant inhibition”. For the same molecule, the ED50 (as a rule, the midpoint of the dose-response relation) at brain MAO-A (mouse, po, read-out: ED50 ex vivo brain MAO-A inhibition) was approximately 10 mg/kg. In the data set on SAMP8 mice, the “locomotor activity in the OF test” value is given as “no significant genotype or treatment differences”. Further, the % inhibition (in general, the change of the read-out against control, counted positive when it falls) in data set [1] stood at 13%. In addition, the “% inhibition” value in data set [2] is -2%. Also, on Human recombinant MAO-A, the IC50 (as a rule, the point on the concentration scale where inhibition reaches its midpoint) amounted to 5.47 ± 0.3 µM. Moreover, the “neurological alterations in the Functional Observation Battery” value with rats was “did not lead to neurological alterations”. In addition, in the data set “Mouse pharmacokinetics” (BALB/c mice, oral 10 mg/kg), the “Brain Cmax” value stood at 5804 ng/g and the Fpo turned out to be 75%. Also, the AUC (commonly concentration integrated over time) in the data set “Mouse pharmacokinetics” (male, mouse, plasma, po, Balb/c mice, p.o. 10 mg/kg, read-out: area-under-the-curve (AUC) (converted)) is 17200 ng·h/mL. For the same molecule, in the data set “Mouse pharmacokinetics” (setting [3]), the clearance (commonly a measure of how efficiently the substance is removed, as volume per time) worked out at 6.8 mL/min/kg; the half-life (commonly the time needed for the level to fall by half in the phase considered) came to 2.05 h; the AUC(0-inf) was found to be 4880 ng·h/mL; the AUC(0-t) was 4570 ng·h/mL. Moreover, the Vd in “Mouse pharmacokinetics” (male, mouse, plasma, BALB/c mice, intravenous 2 mg/kg, read-out: Vss) was 1.1 L/kg. In the data set “Mouse pharmacokinetics” (setting [4]), the Cmax (commonly the maximum level reached in the sampled fluid or tissue) was 4160 ng/mL, the time to peak (Tmax) (commonly the time at which the peak concentration occurs) was 0.25 h, the half-life is 2.22 h and the AUC(0-inf) is 17200 ng·h/mL. The AUC(0-t) in “Mouse pharmacokinetics” (setting [4]) came out at 17200 ng·h/mL.
